Laboratory results published in patent US9562035B2, “Benzamide derivative useful as FASN inhibitors for the treatment of cancer” (Janssen Pharmaceutica NV, priority 2013, dated 2017).

Tests used:
[1] = target: T1, hFASN enzyme (full length) (Homo sapiens, UniProt P49327); test: Fatty Acid Synthase (FASN) Inhibition Scintillation Proximity Assay; assay type: biochemical; settings: for IC50: mean where tested more than once, ~ = standard error of pIC50 larger than 0.5; for inhibition at 10 µM: read-out: FASN % Effect @1E−05M
T1 construct: 10 μL hFASN enzyme (full length, 300 ng, purified in house); made in house
T1 sequence (P49327 whole entry): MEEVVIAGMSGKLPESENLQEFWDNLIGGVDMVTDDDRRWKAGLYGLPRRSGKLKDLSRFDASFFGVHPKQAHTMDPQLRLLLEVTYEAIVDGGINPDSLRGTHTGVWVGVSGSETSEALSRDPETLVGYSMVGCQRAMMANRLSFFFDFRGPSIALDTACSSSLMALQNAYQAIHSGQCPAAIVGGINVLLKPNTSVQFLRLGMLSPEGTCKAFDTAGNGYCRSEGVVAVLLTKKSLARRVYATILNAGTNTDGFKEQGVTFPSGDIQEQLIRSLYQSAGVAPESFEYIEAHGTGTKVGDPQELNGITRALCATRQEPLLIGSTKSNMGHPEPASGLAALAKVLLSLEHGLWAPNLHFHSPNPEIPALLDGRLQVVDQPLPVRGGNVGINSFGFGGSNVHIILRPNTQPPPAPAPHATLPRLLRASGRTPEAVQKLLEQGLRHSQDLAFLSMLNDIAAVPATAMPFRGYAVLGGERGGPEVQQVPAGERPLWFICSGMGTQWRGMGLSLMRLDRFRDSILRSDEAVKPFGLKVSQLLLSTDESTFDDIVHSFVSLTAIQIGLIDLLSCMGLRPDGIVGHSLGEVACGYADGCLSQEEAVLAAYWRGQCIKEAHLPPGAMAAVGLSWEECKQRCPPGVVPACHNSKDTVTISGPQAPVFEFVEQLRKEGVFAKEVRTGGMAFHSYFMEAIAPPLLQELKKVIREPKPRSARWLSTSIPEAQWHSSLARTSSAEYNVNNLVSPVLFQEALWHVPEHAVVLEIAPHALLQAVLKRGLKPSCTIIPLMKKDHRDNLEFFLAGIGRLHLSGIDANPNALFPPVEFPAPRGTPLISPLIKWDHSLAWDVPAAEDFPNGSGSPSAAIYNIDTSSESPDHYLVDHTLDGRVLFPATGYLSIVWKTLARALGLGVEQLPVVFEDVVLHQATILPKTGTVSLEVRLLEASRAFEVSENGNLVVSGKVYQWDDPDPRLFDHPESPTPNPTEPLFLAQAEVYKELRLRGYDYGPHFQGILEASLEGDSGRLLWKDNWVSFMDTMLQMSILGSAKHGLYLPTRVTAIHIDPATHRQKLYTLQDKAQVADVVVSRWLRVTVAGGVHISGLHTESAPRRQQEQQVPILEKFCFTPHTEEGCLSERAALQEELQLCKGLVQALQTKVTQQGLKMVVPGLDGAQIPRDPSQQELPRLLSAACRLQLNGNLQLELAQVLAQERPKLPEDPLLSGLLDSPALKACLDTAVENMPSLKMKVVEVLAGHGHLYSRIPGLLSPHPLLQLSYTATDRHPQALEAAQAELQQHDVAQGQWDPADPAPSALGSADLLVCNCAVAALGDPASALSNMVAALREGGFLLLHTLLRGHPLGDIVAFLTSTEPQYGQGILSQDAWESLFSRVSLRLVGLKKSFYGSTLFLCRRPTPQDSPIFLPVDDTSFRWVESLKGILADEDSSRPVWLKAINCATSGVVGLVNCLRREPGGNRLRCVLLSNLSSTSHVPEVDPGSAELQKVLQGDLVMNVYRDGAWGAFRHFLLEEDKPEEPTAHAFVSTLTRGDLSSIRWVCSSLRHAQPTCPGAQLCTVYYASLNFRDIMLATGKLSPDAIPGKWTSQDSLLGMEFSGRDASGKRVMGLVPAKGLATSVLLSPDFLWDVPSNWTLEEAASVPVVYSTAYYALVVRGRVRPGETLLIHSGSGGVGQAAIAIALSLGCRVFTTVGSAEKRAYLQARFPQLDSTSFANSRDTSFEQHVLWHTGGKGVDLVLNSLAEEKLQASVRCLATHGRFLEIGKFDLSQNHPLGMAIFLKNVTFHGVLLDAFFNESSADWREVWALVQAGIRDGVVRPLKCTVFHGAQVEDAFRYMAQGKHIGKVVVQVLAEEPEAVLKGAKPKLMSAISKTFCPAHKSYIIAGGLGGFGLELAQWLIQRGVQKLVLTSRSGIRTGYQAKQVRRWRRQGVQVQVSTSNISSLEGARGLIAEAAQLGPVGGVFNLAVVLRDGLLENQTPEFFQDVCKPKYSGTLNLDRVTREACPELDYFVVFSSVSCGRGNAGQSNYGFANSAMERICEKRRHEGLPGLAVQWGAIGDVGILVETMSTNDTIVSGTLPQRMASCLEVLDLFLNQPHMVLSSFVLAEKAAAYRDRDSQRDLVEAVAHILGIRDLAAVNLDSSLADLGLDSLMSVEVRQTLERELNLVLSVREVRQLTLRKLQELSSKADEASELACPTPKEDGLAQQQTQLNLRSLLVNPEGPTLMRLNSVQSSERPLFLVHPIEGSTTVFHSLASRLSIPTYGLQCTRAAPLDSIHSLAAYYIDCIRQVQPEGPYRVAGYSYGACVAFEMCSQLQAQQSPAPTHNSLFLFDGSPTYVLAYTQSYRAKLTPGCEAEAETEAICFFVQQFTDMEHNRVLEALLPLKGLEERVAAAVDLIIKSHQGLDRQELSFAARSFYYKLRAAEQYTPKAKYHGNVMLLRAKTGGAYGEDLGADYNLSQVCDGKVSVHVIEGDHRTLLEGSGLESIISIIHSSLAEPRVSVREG
Protocol: In this assay, inhibition of FASN activity is measured using ^3H-acetyl-CoA and malonyl-CoA as substrates. ^3H-Acetyl CoA is converted to ^3H-palmitate through a series of reactions by the FASN protein, which contains 7 functional domains and carries out 7 enzymatic reactions to ultimately produce ^3H-palmitate. The assay principle is based upon the fact that ^3H-acetyl-CoA is hydrophilic and the end product, ^3H-palmitate is hydrophobic.
10 μL assay buffer (100 mM KH2PO4 pH 7.5, 1 mM DTT) (20 μL in blanks) was added to a 384-well white Opti Plate plate (Perkin Elmer). 0.9 μL test compound (at concentrations of 30 μM, 10 μM, 3 μM, 1 μM, 0.30 μM, 0.10 μM, 0.03 μM and 0.01 μM)/DMSO and 10 μL hFASN enzyme (full length, 300 ng, purified in house) or 10 μL assay buffer was added to the wells. Then 10 μL 450 μM NADPH (Sigma N7505), 18.75 μM [^3H]-acetyl-CoA (Perkin Elmer NET-290L), 150 μM malonyl-CoA (Sigma M4263) were added, mixed and incubated at room temperature for 60 minutes. The reaction was stopped by adding 20 μL Streptavidin coupled imaging beads (25 mg/ml). After incubation for 30 minutes at room temperature in the dark, the 384 well plate was centrifuged at 1500 rpm for 3 minutes and was measured after at least 24 hrs by the LEADseeker™, measuring emission using a 610±20 nm pass filter. (Bays, N. W., et al., “A simplified scintillation proximity assay for fatty acid synthase activity: development and comparison with other FAS activity assays”, J. Biomol. Screen, 2009, pp 636-642, Vol. 14(6).)
(§1) Raw data generated by the instrument were normalized to % Controlmin values, which were calculated as: % Controlmin=100*(x−mLC)/(mHC−mLC)
(§2) where mLC and mHC were the means of the low control wells and high control wells on the plate, after manual exclusion of outliers. A plot of Controlmin versus test compound concentration was fitted to a 4-parameter logistic curve using a non-linear least squares regression method. From the plot, an IC50 (concentration at which 50% inhibition is achieved) was calculated. pIC50 values were calculated as −log(IC50), when IC50 is expressed in molar units.

[2] = target: T2, FASN Keto-reductase Domain (Homo sapiens, UniProt P49327); test: Fatty Acid Synthase Keto-Reductase Domain (FASN KR) Inhibition; assay type: biochemical; settings: mean where tested more than once; read-out: FASN K-R Domain pIC50 (converted)
T2 construct: 10 μL hFASN enzyme (full length, 300 ng, purified in house) and 360 μM NADPH; made in house
T2 sequence (P49327 whole entry, the tested form may be a part): as the sequence (P49327 whole entry) above
Protocol: 10 μL assay buffer (100 mM KH2PO4 pH 7.5) was added to a 384-well clear plate (costar 3702). 0.3 μL compound (at concentrations of 30 μM, 10 μM, 3 μM, 1 μM, 0.30 μM, 0.10 μM, 0.03 μM and 0.01 μM)/DMSO, 10 μL hFASN enzyme (full length, 300 ng, purified in house) and 360 μM NADPH (except in blank) were then added. Then, 10 μL 180 mM ethyl acetoacetate (Aldrich 688983) was added, mixed and immediately thereafter, the absorbance at 340 nm (T1) by Multiscan (Labsystems) was measured. After 20 minutes incubation at room temperature the plate was measured again (T2).
The decrease in absorbance was calculated as (Absorbance before incubation T1)−(Absorbance following incubation T2).
as §1, §2

A2780 ovarian cells [3] = test: A2780 Ovarian Cell Proliferation Assay in Lipid Reduced Medium, without Palmitate; assay type: cell-based; settings: Homo sapiens, A2780; lipid reduced medium, without palmitate, 96 h, MTT; read-out: Proliferation A2780 w/o Palmitate pIC50 (converted)
Protocol: (§3) The biological assays described below correspond to comparative assays for ovarian cell proliferation. […] Compounds active in the absence of palmitate would not be expected to be active in the control.
(§4) 2500 cells were seeded in a 96-well clear well plate in 200 μL RPMI1640 with 10% Fetal Calf Serum (Hyclone), and incubated at 37° C., 5% CO2. Blanks were wells without cells. The next day the culture medium was aspirated and replaced by 160 μL culture medium with 10% Lipid-Reduced Serum (LRS, Hyclone). 20 μL test compound (at concentrations of 30 μM, 10 μM, 3 μM, 1 μM, 0.30 μM, 0.10 μM, 0.03 μM and 0.01 μM)/DMSO dilution followed by 20 μL ethanol-BSA solution were added to a final concentrations of 0.2% DMSO, 0.2% fatty-acid-free BSA, 0.25% ethanol. After 96 h incubation an MTT assay was performed. The absorbance was measured at 544 nm on a SPECTRAMAX.
as §1, §2
(§5) Representative compounds of the present invention were tested according to the procedure as described in Biological Example 3 above, with results as listed in Table BIO-3, below.

A2780 ovarian cells [4] = test: A2780 Ovarian Cell Proliferation Assay in Lipid Reduced Medium, with Palmitate (control); assay type: cell-based; settings: Homo sapiens, A2780; lipid reduced medium, 25 μM palmitate, 96 h, MTT; read-out: Proliferation A2780 with Palmitate pIC50 (converted)
Protocol: as §3
as §4, with “palmitate-BSA” for “ethanol-BSA”, “DMSO, 25 μM palmitate (Sigma, P0500, 10 mM stock solution in ethanol)” for “DMSO,”, “incubation,” for “incubation”
A best fit curve was fitted by a minimum sum of squares method, plotting Controlmin versus test compound concentration. From the plot, an IC50 (concentration at which 50% inhibition is achieved) was calculated. pIC50 values, presented in the Table below, were calculated as −log(IC50).
as §5

Structure (SMILES)	IC50 [1] [µM]	inhibition at 10 µM [1] [%]	IC50 [2] [µM]	IC50 (A2780 ovarian cells [3]) [µM]	IC50 (A2780 ovarian cells [4]) [µM]
Cc1ccc(C(=O)N2CC[C@H](c3ccc(-n4ccnc4)cc3)[C@H](C)C2)cc1NC(=O)c1ccc(Cl)nc1 (racemic) [Compound 53, (±)-N-(5-((3S,4S)-4-(4-(1H-imidazol-1-yl)phenyl)-3-methylpiperidine-1-carbonyl)-2-methylphenyl)-6-chloronicotinamide]	0.251	101	0.562	0.603	8.51
Cc1ccc(C(=O)N2CC[C@H](c3ccc(-n4ccnc4)cc3)[C@@H](C)C2)cc1NC(=O)c1ccc(Cl)nc1 (racemic) [Compound 54, (±)-N-(5-(4-((3R,4S)-4-(1H-imidazol-1-yl)phenyl)-3-methylpiperidine-1-carbonyl)-2-methylphenyl)-6-chloronicotinamide]	0.234	104	0.288	0.204	> 10
Cc1ccc(C(=O)N2CC[C@H](c3ccc(-c4ccnn4C)cc3)[C@H](C)C2)cc1NC(=O)c1ccc(NC(C)C)nc1 (racemic) [Compound #76, (±)-6-(Isopropylamino)-N-(2-methyl-5-((3S,4S)-3-methyl-4-(4-(1-methyl-1H-pyrazol-5-yl)phenyl)piperidine-1-carbonyl)phenyl)nicotinamide]	0.631	91	1.38	1.05	2
CC(C)Nc1ccc(C(=O)Nc2cc(C(=O)N3CC[C@H](c4ccc(-c5ccnn5C)cc4)[C@@H](O)C3)ccc2Cl)cn1 (racemic) [Compound #77, (±)-N-(2-chloro-5-((3R,4R)-3-hydroxy-4-(4-(1-methyl-1H-pyrazol-5-yl)phenyl)piperidine-1-carbonyl)phenyl)-6-(isopropylamino)nicotinamide]	0.178	105	1.07	0.851	15.1
Cc1ccc(C(=O)N2CC[C@H](c3ccc(-c4ccnn4C)cc3)[C@H](C)C2)cc1NC(=O)c1ccc(Cl)nc1 (racemic) [Compound #111, (±)-6-chloro-N-(2-methyl-5-((3S,4S)-3-methyl-4-(4-(1-methyl-1H-pyrazol-5-yl)phenyl)piperidine-1-carbonyl)phenyl)nicotinamide]	0.513	96	1.78	1.62	4.47
Cc1ccc(C(=O)N2CC(c3ccc(-c4cnn(C)c4)cc3)C2)cc1NC(=O)c1ccc(Cl)nc1 [Compound 4, 6-chloro-N-(2-methyl-5-(3-(4-(1-methyl-1H-pyrazol-4-yl)phenyl)azetidine-1-carbonyl)phenyl)nicotinamide]	0.0398	109	0.0977	0.174	> 10
Cc1ccc(C(=O)N2CCC(c3ccc(-c4cnn(C)c4)cc3)CC2)cc1NC(=O)c1ccccc1 [Compound 115, N-(2-methyl-5-(4-(4-(1-methyl-1H-pyrazol-4-yl)phenyl)piperidine-1-carbonyl)phenyl)benzamide]	–	99	–	0.162	> 10
COc1ncccc1C(=O)Nc1cc(C(=O)N2CCC(c3ccc(-c4cnn(C)c4)cc3)CC2)ccc1C [Compound 118, 2-methoxy-N-(2-methyl-5-(4-(4-(1-methyl-1H-pyrazol-4-yl)phenyl)piperidine-1-carbonyl)phenyl)nicotinamide]	–	–	0.288	0.389	2.75
COc1ccc(C(=O)N2CC(c3ccc(-c4cnn(C)c4)cc3)C2)cc1NC(=O)c1ccc(Cl)nc1 [Compound 183, 6-chloro-N-(2-methoxy-5-(3-(4-(1-methyl-1H-pyrazol-4-yl)phenyl)azetidine-1-carbonyl)phenyl)nicotinamide]	–	98	–	0.407	> 10

Other lines, results leading:

IC50 [1] [µM]	inhibition at 10 µM [1] [%]	IC50 [2] [µM]	IC50 (A2780 ovarian cells [3]) [µM]	IC50 (A2780 ovarian cells [4]) [µM]	Structure (SMILES)
~0.0324	120	0.1	0.11	4.27	Cc1ccc(C(=O)N2CC[C@H](c3ccc(-c4ccnn4C)cc3)[C@@H](C)C2)cc1NC(=O)c1ccc(NC(C)C)nc1 (racemic) [Compound #81, (±)-6-(isopropylamino)-N-(2-methyl-5-((3R,4S)-3-methyl-4-(4-(1-methyl-1H-pyrazol-5-yl)phenyl)piperidine-1-carbonyl)phenyl)nicotinamide]
0.0191	115	0.132	0.174	6.31	Cc1ccc(C(=O)N2CC[C@H](c3ccc(-c4ccnn4C)cc3)[C@@H](C)C2)cc1NC(=O)c1ccc(Cl)nc1 (racemic) [Compound #110, (±)-6-Chloro-N-(2-methyl-5-((3R,4S)-3-methyl-4-(4-(1-methyl-1H-pyrazol-5-yl)phenyl)piperidine-1-carbonyl)phenyl)nicotinamide]
0.0347	102	0.0851	~0.302	> 10	CCC(=O)NC1CC[C@@H](C(=O)Nc2cc(C(=O)N3CC(c4ccc(-c5ccnn5C)cc4)C3)ccc2C)C1 (stereo in doubt) [Compound 64, (1R,3S)—N-(2-methyl-5-(3-(4-(1-methyl-1H-pyrazol-5-yl)phenyl)azetidine-1-carbonyl)phenyl)-3-propionamidocyclopentanecarboxamide]
0.0257	106	0.0646	0.138	5.25	Cc1ccc(C(=O)N2CC(c3ccc(-c4ccncc4)cc3)C2)cc1NC(=O)c1ccc(Cl)nc1 [Compound 3, 6-chloro-N-(2-methyl-5-(3-(4-(pyridin-4-yl)phenyl)azetidine-1-carbonyl)phenyl)nicotinamide]
